# Legend:
# [1] = tested on: rat model of chronic coronary artery ligation (myocardial infarction, congestive heart failure); assay: Proof of concept study: chronic heart failure after permanent left coronary artery occlusion; lung weight and isolated working heart after eight weeks of treatment; assay type: in vivo, Male Wistar rats; details: for Lung weight / Cardiac output / LV dP/dtmax / LV dP/dtmin: MI, eight weeks, mean ± sem; for Cardiac output / LV dP/dtmax / LV dP/dtmin: working heart, afterload 80 mmHg
# Excerpt: In order to test the effect of specific activation of either PPARγ (rosiglitazone) or PPARα (compound of formula (I), (II) and (III)) on the improvement of CHF, a rat model of chronic coronary artery ligation was used because myocardial infarction is the most common cause for CHF in the industrialized countries.
# Male Wistar rats were housed three per cage under standardized conditions of temperature, humidity, and light. They had free access to a standardized diet (sodium content 0.2%, Altromin, Lage, Germany) and tap drinking water. Chronic heart failure was induced by a permanent occlusion of the left coronary artery approximately 2 mm distal to its origin from the aorta resulting in a large infarction of the free left ventricular wall. Chronic treatment was initiated on the day after production of the myocardial infarction and continued for eight weeks.
# The left atrium was cannulated by an incision of the left auricle. After a 15-minute equilibration period at a fixed perfusion pressure of 60 mmHg, the heart was switched into the working mode at a fixed filling pressure of 11 mm Hg. Then, afterload pressure was varied stepwise every two minutes from 40 to 140 mmHg. […] Flow and pressure signals were sampled at 500 Hz, averaged every 2 seconds. Cardiac output measures the overall capacity of the heart to pump the blood through the body. LV dP/dtmax is an index of myocardial contractility, i.e. the force generating ability of the heart; LV dP/dtmin is an index of the ability of the myocardium to relax. In addition, lung weight was measured as an index of pulmonary congestion, an indirect sign of CHF.
# Treatment with a compound of the formula (I) (pressed in chow, resulting in a dose of 20 mg/kg/d) was initiated on the day after myocardial infarction. The pure PPARγ agonist rosiglitazone was used for comparison in an additional group (3 mg/kg/day in chow).
# [2] = tested on: rats with chronic ligation of the left coronary artery (myocardial infarction, heart failure); assay: Dose response in chronic myocardial infarction: lung weight and isolated working heart after 8 weeks of treatment; assay type: in vivo, Male Sprague Dawley rats; details: for Lung weight / Cardiac output / LV dP/dtmax / LV dP/dtmin: MI, 8 weeks, mean ± sem; for Cardiac output / LV dP/dtmax / LV dP/dtmin: working heart, afterload 80 mmHg
# Description: At the end of the treatment period, cardiac function was measured using an isolated working heart preparation (modified Langendorff apparatus, cf. Linz et al., J. Ren. Angiotensin Aldosterone Syst., 2003): The hearts were perfused according to Langendorff's method with an oxygenated (95% O2, 5% CO2) noncirculating Krebs-Henseleit solution of the following compositions (mmol/L): NaCl, 118; KCl, 4.7; CaCl2, 2.5; MgSO4, 1.6; NaHCO3, 24.9; KH2PO4, 1.2; glucose, 5.5; Na-pyruvate, 2.0. The left atrium was cannulated by an incision of the left auricle. After a 15-minute equilibration period at a fixed perfusion pressure of 60 mmHg, the heart was switched into the working mode at a fixed filling pressure of 11 mm Hg. Then, afterload pressure was varied stepwise every two minutes from 40 to 140 mmHg. Data in the table are representative and given for a constant afterload pressure of 80 mmHg. Flow and pressure signals were sampled at 500 Hz, averaged every 2 seconds. Cardiac output measures the overall capacity of the heart to pump the blood through the body. LV dP/dtmax is an index of myocardial contractility, i.e. the force generating ability of the heart; LV dP/dtmin is an index of the ability of the myocardium to relax. In addition, lung weight was measured as an index of pulmonary congestion, an indirect sign of CHF.
# Male Sprague Dawley rats were pre-treated with a chronic ligation of the left coronary artery, in order to produce a myocardial infarction (MI) and subsequent development of heart failure: Treatment with a compound of the formula (I) (pressed in chow, resulting in different daily doses) was initiated on the day after myocardial infarction. After 8 weeks of treatment, the animals were killed, the lung was weighed, and the function of the isolated heart was analyzed ex vivo in the working heart mode, in the same manner as described for Example 1 (vide supra). This method allows to assess different aspects of the myocardial function. For comparison against the effect of an established therapeutic principle in the present experimental series, the dual ACE/NEP, or vasopeptidase, inhibitor (7-(2-Acetylsulfanyl-3-methyl-butyrylamino)-6-oxo-1,2,3,4,6,7,8,12b-octahydro-benzo[c]pyrido[1,2-a]azepine-4-carboxylic acid; international patent application no. WO 02/083671) that is known for being active in the treatment of CHF was applied in an additional group.
# [3] = compound (I) 20 mg/kg/d in chow
# [4] = rosiglitazone 3 mg/kg/d in chow
structure (smiles),measurement,setting,value
"Cc1cccc(COCCCOCc2coc(-c3ccccc3)n2)c1C(=O)O [compound (I), 2-methyl-6-[3-(2-phenyloxazol-4-ylmethoxy)propoxymethyl] benzoic acid]",Effect of chronic treatment on heart failure (in words),"[1]; MI rats, eight weeks in chow, compound (I) 20 mg/kg/d, rosiglitazone 3 mg/kg/day",improves different aspects of heart failure
same,Lung weight,[1]; [3],1.62 ± 0.06 Gram
same,Cardiac output,[1]; [3],25.8 ± 4.3 mL/min
same,LV dP/dtmax,[1]; [3],4614 ± 253 mmHg/s
same,LV dP/dtmin,[1]; [3],2502 ± 77 mmHg/s
same,Effect of chronic treatment on heart failure (in words),"[2]; MI rats, 8 weeks in chow, different daily doses",improves different aspects of heart failure
same,Lung weight,[2]; 1 mg/kg/d in chow,0.80 ± 0.08 g/100 g BW
same,Cardiac output,[2]; 1 mg/kg/d in chow,12.5 ± 3.3 mL/min
same,LV dP/dtmax,[2]; 1 mg/kg/d in chow,3280 ± 250 Mm Hg/s
same,LV dP/dtmin,[2]; 1 mg/kg/d in chow,1886 ± 137 mm Hg/s
same,Lung weight,[2]; 3 mg/kg/d in chow,0.54 ± 0.08 g/100 g BW
same,Cardiac output,[2]; 3 mg/kg/d in chow,21.5 ± 5.4 mL/min
same,LV dP/dtmax,[2]; 3 mg/kg/d in chow,3665 ± 166 Mm Hg/s
same,LV dP/dtmin,[2]; 3 mg/kg/d in chow,2353 ± 77 mm Hg/s
same,Lung weight,[2]; 10 mg/kg/d in chow,0.54 ± 0.09 g/100 g BW
same,Cardiac output,[2]; 10 mg/kg/d in chow,21.0 ± 4.0 mL/min
same,LV dP/dtmax,[2]; 10 mg/kg/d in chow,4043 ± 256 Mm Hg/s
same,LV dP/dtmin,[2]; 10 mg/kg/d in chow,2339 ± 111 mm Hg/s
"CN(CCOc1ccc(CC2SC(=O)NC2=O)cc1)c1ccccn1 (centres unmarked) [Rosiglitazone, rosiglitazone, reference compound]",Lung weight,[1]; [4],3.67 ± 0.38 Gram
same,Cardiac output,[1]; [4],10.2 ± 3.8 mL/min
same,LV dP/dtmax,[1]; [4],3491 ± 147 mmHg/s
same,LV dP/dtmin,[1]; [4],2081 ± 65 mmHg/s
"CC(=O)SC(C(=O)NC1Cc2ccccc2C2CCCC(C(=O)O)N2C1=O)C(C)C (centres unmarked) [VPI, 7-(2-Acetylsulfanyl-3-methyl-butyrylamino)-6-oxo-1,2,3,4,6,7,8,12b-octahydro-benzo[c]pyrido[1,2-a]azepine-4-carboxylic acid, reference compound]",Lung weight,[2]; 30 mg/kg/d,0.56 ± 0.07 g/100 g BW
same,Cardiac output,[2]; 30 mg/kg/d,27.2 ± 3.5 mL/min
same,LV dP/dtmax,[2]; 30 mg/kg/d,3868 ± 172 Mm Hg/s
same,LV dP/dtmin,[2]; 30 mg/kg/d,2379 ± 120 mm Hg/s

# Reference: patent US7601863B2, “Use of PPAR agonists for the treatment of congestive heart failure” (sanofi-aventis Deutschland GmbH, priority 2004, dated 2009)
